Results from US8288386B2, “Melanocortin receptor agonists” (LG Life Sciences Ltd., priority 2008, dated 2012).
pEC50: −log10 of the molar value.

Target: T1, MC4R (Homo sapiens, UniProt P32245)
T1 construct: expressed in transfected cells; host or cells: HEK (Human Embryonic Kidney) permanent expression cell line HEK MC4R-Luc, with CRE-LUC reporter
Test: MCR agonistic activity (luciferase assay / cAMP accumulation assay) in HEK MC4R-Luc cells
Assay type: cell-based
Settings: agonistic activity to MC4R; ranges given; read-out: EC50 value in the range
Description: Physiological activity of the compounds of the present invention was assessed by measuring agonistic activity as well as binding activity for melanocortin receptors (MCR) according to methods A and B explained as follows.
As one of the methods to measure MCR agonistic activity of the compound according to the present invention, the expression level of a marker gene (for example, luciferase) which increases proportionally according to the increase of cAMP content in the cell, was measured.
First, permanent expression HEK (Human Embryonic Kidney) cell lines (HEK MC1R-Luc, MC3R-Luc, MC4R-Luc or MC5R-Luc) expressing the MCR gene of each subtype together with luciferase gene (CRE-LUC) under the control of CRE (cAMP Response Element) were constructed. The above cell lines were incubated in an incubator with 6% CO2 atmosphere at 37° C. using selection medium, DMEM (Dulbecco's Modified Eagles Medium) containing 10% heat-inactivated fetal bovine serum (Gibco/BRL), 100 unit/ml, penicillin (Gibco/BRL), 100 unit/ml streptomycin (Gibco/BRL), and 200 μg/ml geneticin (G418) (Gibco/BRL). […] After allowing the treated cells to be at room temperature for 15 minutes, luminescence was measured for each well by using luminometer (Victor). The level of luminescence induced by the stepwise-diluted agonist was converted to relative % value to those by the treatment of 10 μM NDP-MSH. […]
As another method to measure MCR agonistic activity of the compound according to the present invention, an increase of cAMP amount in the cell was measured.
First, permanent expression HEK (Human Embryonic Kidney) cell lines (HEK MC1R-Luc, MC3R-Luc, MC4R-Luc or MC5R-Luc) expressing the MCR gene of each subtype were plated onto each well of 24-well culture plates for Luminometer (Costar) with a concentration of 2×10^5 cell in 1 ml culture medium for each well, and then incubated in an incubator with 6% CO2 atmosphere at 37° C. for 24 hours. […] Then, the cAMP amount in each cell was measured using Amersham cAMP assay Kit (TRK432). […]

T1 sequence (P32245 whole entry, species assumed): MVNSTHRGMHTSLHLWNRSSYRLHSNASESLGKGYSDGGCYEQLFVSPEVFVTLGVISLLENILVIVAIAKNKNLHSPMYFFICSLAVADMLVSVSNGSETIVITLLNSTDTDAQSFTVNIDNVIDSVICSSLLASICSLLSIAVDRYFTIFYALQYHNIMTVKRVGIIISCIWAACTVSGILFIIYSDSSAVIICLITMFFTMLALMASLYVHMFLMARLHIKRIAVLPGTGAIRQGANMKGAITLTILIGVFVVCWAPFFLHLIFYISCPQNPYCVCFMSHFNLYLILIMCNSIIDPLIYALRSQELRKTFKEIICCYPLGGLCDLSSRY

Row | Structure (SMILES) | pEC50
1 | CC(C)C(=O)N(c1ccc(F)cc1F)[C@H]1C[C@@H](C(=O)N2CCN(C)CC2)N(C(=O)[C@@H]2CN(C(C)(C)C)C[C@H]2c2ccc(Cl)cc2)C1 [Example 79, N-{(3S,5S)-1-{[(3S,4R)-1-tert-butyl-4-(4-chlorophenyl)pyrrolidin-3-yl]carbonyl}-5-[(4-methylpiperazin-1-yl)carbonyl]pyrrolidin-3-yl}-N-(2,4-difluorophenyl)-2-methylpropanamide] | 7.00 to 8.00
2 | CN1CCN(C(=O)[C@@H]2C[C@H](N(C(=O)c3ccco3)c3ccc(F)cc3F)CN2C(=O)[C@@H]2CN(C(C)(C)C)C[C@H]2c2ccc(F)cc2F)CC1 [Example 84, N-{(3S,5S)-1-{[(3S,4R)-1-tert-butyl-4-(2,4-difluorophenyl)pyrrolidin-3-yl]carbonyl}-5-[(4-methylpiperazin-1-yl)carbonyl]pyrrolidin-3-yl}-N-(2,4-difluorophenyl)-2-furamide] | 6.00 to 7.00
3 | CC(=O)N(C1CCC(F)(F)CC1)[C@H]1C[C@@H](C(=O)N2CCN(C)CC2)N(C(=O)[C@@H]2CN(C(C)(C)C)C[C@H]2c2ccc(Cl)cc2)C1 [Example 27, N-{(3S,5S)-1-{[(3S,4R)-1-tert-butyl-4-(4-chlorophenyl)pyrrolidin-3-yl]carbonyl}-5-[(4-methylpiperazin-1-yl)carbonyl]pyrrolidin-3-yl}-N-(4,4-difluorocyclohexyl)acetamide] | 6.00 to 7.00
